Measurements published in patent US20030118514A1, “Compositions for inhalation” (Glaxo Wellcome Inc., priority 1998, published 2003).
Where two headings read alike, the source gives them in different places.

Key:
[1] = Fine particle fraction of salbutamol sulphate blended with Lactochem lactose (Example 7); type: physicochemical; details: after blending with Lactochem lactose
[2] = Mass median diameter of salbutamol sulphate particles; type: physicochemical

Substance | fine particle fraction (<6.4 μm) [1] [% recovered dose] | mass median diameter ([2]; listed as elongated crystals (needle shaped) of salbutamol sulphate) [μm] | mass median diameter [2] [μm]
salbutamol sulphate [recrystallised salbutamol sulphate] | 22.8 | 5.49 | –
salbutamol sulphate [micronised salbutamol sulphate] | 10.8 | – | 4.79
